Tests used:
in vitro = settings: Sprague-Dawley, rat, brain homogenate
Brain [1] = settings: rat, 5 h, 0.1 µM
Brain [2] = test: Unbound volume of distribution in Sprague-Dawley rat brain slices at 100 nM after 5 hrs in presence of 10 uM of cyclosporine; type: ADME, tissue-based; settings: 0.1 µM
in vivo = settings: Sprague-Dawley, rat
[3] = Dissociation constant, pKa of the basic compound by capillary electrophoresis-mass spectrometry analysis; type: physicochemical
Brain [4] = test: Drug uptake in Sprague-Dawley rat brain slices in presence of 1 uM of decynium-22; type: ADME, tissue-based
Brain [5] = test: Drug uptake in Sprague-Dawley rat brain slices in presence of 50 nM of monensin; type: ADME, tissue-based
Brain [6] = settings: rat, in vivo, 5 h, 0.1 µM
Description: Drug uptake in Sprague-Dawley rat brain slices at 100 nM after 5 hrs in presence of 10 uM of fumitremorgin-C and 20 uM of MK-571

Brain [7] = settings: rat, in vivo, 5 h, 0.1 µM; remark: listed apart in the source
Description: Drug uptake in Sprague-Dawley rat brain slices at 100 nM after 5 hrs in presence of 20 uM of MK-571

Brain [8] = settings: rat, in vivo, 5 h, 0.1 µM; remark: listed apart in the source
Description: Drug uptake in Sprague-Dawley rat brain slices at 100 nM after 5 hrs in presence of 10 uM of fumitremorgin-C

Brain [9] = settings: Sprague-Dawley, rat, brain homogenate, 5 µM
Brain [10] = test: Drug uptake in Sprague-Dawley rat brain slices at 100 nM after 5 hrs in presence of 10 uM of cyclosporine; type: ADME, tissue-based; settings: 0.1 µM

Description for physchem: Dissociation constant, pKa of the acidic compound by capillary electrophoresis-mass spectrometry analysis

Structure (SMILES)	pKa (physchem)	fraction unbound at 5 µM (in vitro)	Vdu (Brain [1]; in vivo) [mL/g]	Kp uu (in vivo; brain)	Vdu (Brain [1]) [mL/g]	Kp uu (in vivo; brain and plasma)	other results
CC(C)(C)NC(=O)[C@@H]1C[C@@H]2CCCC[C@@H]2CN1C[C@@H](O)[C@H](Cc1ccccc1)NC(=O)[C@H](CC(N)=O)NC(=O)c1ccc2ccccc2n1	6.8	0.0038	208	0.79	–	–	Unbound brain volume of distribution (Brain [2]): Active
COc1cccc(C2(O)CCCCC2CN(C)C)c1 (stereo unspecified) [TRAMADOL]	9.7	0.53	4.2	2.25	–	–	–
CN1CC[C@]23c4c5ccc(O)c4O[C@H]2[C@@H](O[C@@H]2O[C@H](C(=O)O)[C@@H](O)[C@H](O)[C@H]2O)C=C[C@H]3[C@H]1C5 [MORPHINE GLUCURONIDE]	9	0.87	–	–	0.98	0.86	pKa [3]: 4.3
C[n+]1ccc(-c2ccccc2)cc1	–	0.49	–	–	157	77	Compound recovery (Brain [4]): Not Active; Compound recovery (Brain [5]): Not Active
CN(C)CCC=C1c2ccccc2CCc2ccccc21 [AMITRIPTYLINE]	9.5	0.01	310	–	–	3.08	–
C[C@H]1COc2c(N3CCN(C)CC3)c(F)cc3c(=O)c(C(=O)O)cn1c23.C[C@H]1COc2c(N3CCN(C)CC3)c(F)cc3c(=O)c(C(=O)O)cn1c23.O [LEVOFLOXACIN]	–	0.84	–	–	1.7	1.44	–
CC[N+](CC)(CC)CC [TETRYLAMMONIUM]	–	1	9	8.95	–	–	Compound recovery (Brain [4]): Not Active; Compound recovery (Brain [5]): Active
CCNC(=O)C(C(N)=O)c1ccccc1 (stereo unspecified)	–	0.65	0.93	0.6	–	–	–
CC(NC(C)(C)C)C(=O)c1cccc(Cl)c1 (stereo unspecified) [BUPROPION]	8.6	–	–	–	16	2.66	–
C=CCc1ccccc1OCC(O)CNC(C)C (stereo unspecified) [ALPRENOLOL]	–	0.057	50	2.83	–	–	–
C=C[C@H]1C[N+]2(C)CC[C@H]1C[C@@H]2[C@@H](O)c1ccnc2ccc(OC)cc12	–	0.23	–	–	4.6	1.06	Compound recovery (Brain [4]): Not Active; Compound recovery (Brain [5]): Active; Unbound brain volume of distribution (Brain [2]): Active
CCn1cc(C(=O)O)c(=O)c2cc(F)c(N3CCNCC3)cc21 [NORFLOXACIN]	8.7	0.58	2.9	1.66	–	–	pKa [3]: 4.4
CN(C)C(=O)Oc1cccc([N+](C)(C)C)c1 [NEOSTIGMINE]	–	0.95	–	–	3.2	3.07	Compound recovery (Brain [4]): Not Active; Compound recovery (Brain [5]): Active
O=C(O)c1cc(/N=N/c2ccc(S(=O)(=O)Nc3ccccn3)cc2)ccc1O [SULFASALAZINE]	–	–	–	–	–	–	pKa [3]: 2
O=C1c2c(O)ccc(O)c2C(=O)c2c(NCCNCCO)ccc(NCCNCCO)c21 [MITOXANTRONE]	8.4	0.0046	–	–	1757	8.01	Compound recovery (Brain [6]): Active; Compound recovery (Brain [7]): Active; Compound recovery (Brain [8]): Active; pKa [3]: 3.2
CO[C@@]1(NC(=O)C(C(=O)O)c2ccc(O)cc2)C(=O)N2C(C(=O)O)=C(CSc3nnnn3C)CO[C@@H]21 (stereo partly specified) [MOXALACTAM]	–	–	0.46	0.46	–	–	Fu (Brain [9]): 12; pKa [3]: 2.9
CN1CC[C@]23c4c5ccc(O[C@@H]6O[C@H](C(=O)O)[C@@H](O)[C@H](O)[C@H]6O)c4O[C@H]2[C@@H](O)C=C[C@H]3[C@H]1C5 [MORPHINE 3-GLUCURONIDE]	–	0.97	–	–	0.6	0.58	–
CC(C)NCC(O)COc1cccc2[nH]ccc12 (stereo unspecified) [PINDOLOL]	–	0.4	–	2.89	–	–	–
CC(C)Nc1cccnc1N1CCN(C(=O)c2cc3cc(NS(C)(=O)=O)ccc3[nH]2)CC1 [DELAVIRDINE]	4.5	0.022	40	0.86	–	–	–
Cc1c(O)cccc1C(=O)N[C@@H](CSc1ccccc1)[C@H](O)CN1C[C@H]2CCCC[C@H]2C[C@H]1C(=O)NC(C)(C)C	6.3	0.00072	–	–	860	0.62	Compound recovery (Brain [10]): Not Active; Unbound brain volume of distribution (Brain [2]): Active
CN/C(=N/CCSCc1nc[nH]c1C)NC#N [CIMETIDINE]	7	0.76	2.3	1.73	–	–	–
Nc1c2c(nc3ccccc13)CCCC2 [TACRINE]	–	0.16	22	–	–	–	–
Nc1nnc(-c2cccc(Cl)c2Cl)c(N)n1 [LAMOTRIGINE]	–	0.21	4.6	0.96	–	–	–
NC12CC3CC(CC(C3)C1)C2 [AMANTADINE]	–	0.29	9.9	2.83	–	–	–

Reference: ChEMBL document CHEMBL3525927, “Measurement of unbound drug exposure in brain: modeling of pH partitioning explains diverging results between the brain slice and brain homogenate methods” (Drug Metab Dispos, 2011)
